Laboratory results taken from paper PMC3574584 (Journal of medicinal chemistry, 2013).

What was measured:
TC-PTP = biological target: T1, TC-PTP (Homo sapiens, UniProt P17706); test: PTP selectivity pNPP assay, TC-PTP; assay type: biochemical, mammalian
T1 sequence (P17706 1-415): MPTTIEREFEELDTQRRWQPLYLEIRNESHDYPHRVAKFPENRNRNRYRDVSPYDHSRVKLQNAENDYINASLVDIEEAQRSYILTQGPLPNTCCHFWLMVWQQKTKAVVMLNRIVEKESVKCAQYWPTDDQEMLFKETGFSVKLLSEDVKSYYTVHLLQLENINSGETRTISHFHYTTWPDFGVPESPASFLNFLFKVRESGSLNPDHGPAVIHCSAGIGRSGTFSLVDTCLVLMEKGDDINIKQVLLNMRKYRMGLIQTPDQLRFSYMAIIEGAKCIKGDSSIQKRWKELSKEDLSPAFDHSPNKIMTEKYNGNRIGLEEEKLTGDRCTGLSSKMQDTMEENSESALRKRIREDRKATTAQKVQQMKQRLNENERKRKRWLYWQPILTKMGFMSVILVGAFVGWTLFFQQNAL

mPTPB = biological target: T2, mPTPB (Mycobacterium tuberculosis, UniProt I6WXK4); assay type: biochemical
T2 sequence (I6WXK4 1-276): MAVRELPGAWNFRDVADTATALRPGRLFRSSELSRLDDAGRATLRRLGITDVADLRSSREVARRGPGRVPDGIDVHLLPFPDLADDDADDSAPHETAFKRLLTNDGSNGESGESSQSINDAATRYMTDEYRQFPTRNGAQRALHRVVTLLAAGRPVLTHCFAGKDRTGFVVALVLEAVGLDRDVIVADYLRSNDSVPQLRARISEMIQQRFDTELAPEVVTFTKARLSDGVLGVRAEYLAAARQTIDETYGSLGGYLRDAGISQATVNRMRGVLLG

O=C(O)c1cc2c(C#Cc3ccc(F)cc3F)c(-c3ccccc3)oc2cc1O [Compound 4e, 3-((2,4-difluorophenyl)ethynyl)-6-hydroxy-2-phenylbenzofuran-5-carboxylic acid]
IC50 (TC-PTP): 9 ± 0.5 µM

O=C(O)c1cc2c(C#Cc3cc(F)cc(F)c3)c(-c3ccccc3)oc2cc1O [Compound 4f, 3-((3,5-difluorophenyl)ethynyl)-6-hydroxy-2-phenylbenzofuran-5-carboxylic acid]
decrease in IC50 for mPTPB compared to 4b (mPTPB): 3.3 fold

O=C(O)c1cc2c(C#Cc3cccc(C(F)(F)F)c3)c(-c3ccccc3)oc2cc1O [Compound 4g, 6-hydroxy-2-phenyl-3-((3-(trifluoromethyl)phenyl)ethynyl)benzofuran-5-carboxylic acid]
mode of mPTPB inhibition (mPTPB): reversible and noncompetitive
